Here are results for 3 compounds from article PMC3438379 (Journal of enzyme inhibition and medicinal chemistry, 2011).

The subject of data set [1] is HIV-1-infected MT-4 cells. To be noted: ref [9]; cited from earlier work.
The nature of data set [2]: Relative aqueous solubility by stepwise water dilution of DMSO solution. Format: physicochemical. The settings on record: 50 μL DMSO solution of 5 mg mL^−1, water added in 50 μL steps.
For data set [3] the following is noted: cited from earlier work.
In the next data set the target is HIV-1 protease (Human immunodeficiency virus type 1 group M subtype B, UniProt P04585). The settings on record: read-out: IC50 (inhibition of HIV-1 protease), cited from earlier work.

Read-outs that look alike come from different tables or passages of the source.

Consider `C=C(C)[C@@H]1CC[C@]2(C(=O)O)CC[C@]3(C)[C@H](CC[C@@H]4[C@@]5(C)CC[C@H](OC(=O)CC(C)(C)C(=O)O)C(C)(C)[C@@H]5CC[C@]43C)[C@@H]12` [3-O-(3′,3′-dimethylsuccinyl) betulinic acid], for which the “activity against HIV-induced cytopathic effects” value in data set [1] is reported as “high activity”.
For `C=C(C)[C@@H]1CC[C@]2(C(=O)[O-])CC[C@]3(C)[C@H](CC[C@@H]4[C@@]5(C)CC[C@H](O)C(C)(C)[C@@H]5CC[C@]43C)[C@@H]12.C[N+](C)(C)CCO` [compound 8, cholinium betulinate], the “Water solubility (dilution steps required to achieve clear solution)” value in data set [2] is recorded as over 100x.
Consider `C=C(C)[C@@H]1CC[C@]2(C(=O)O)CC[C@]3(C)[C@H](CC[C@@H]4[C@@]5(C)CC[C@H](O)C(C)(C)[C@@H]5CC[C@]43C)[C@@H]12` [compound 1, 3β-hydroxy-lup-20(29)-en-28-oic acid], for which the “solubility in DMSO” value in data set [3] (25°C, ref [23]) is given as 5 % (w/v). Also, the solubility in ethanol in data set [3] (25°C, ref [23]) was 1 % (w/v). The Water solubility in data set [3] (at 25°C, ref [22]) is 0.02 µg/mL. The solubility in water entry in data set [3] (room temperature, ref [22]) is “about 0.02 μg mL^−1”. Further, the “Water solubility (dilution steps required to achieve clear solution)” value in data set [2] is under 2 x. The IC50 at HIV-1 protease (ref [18]) was 9 µM; on HIV-1 protease (ref [19]) it was 2.5 µM.

One may read the IC50 as the point on the concentration scale where inhibition reaches its midpoint.
